Test results reported in patent publication US20050112573A1, “Method of detecting toxic substance” (priority 2001, published 2005).

System: yeast genes (level of expressed mRNA)
Assay: DNA chip analysis of expressed mRNA of yeast genes after 2 h culture with a toxic chemical substance
Type: cell-based, Saccharomyces cerevisiae S288C
Conditions: for The level of expressed mRNA in the presence of chemical substance/ (ratio to absence of chemical substance): stress protein genes, DNA chip
Experimental: Yeast (Saccharomyces cerevtisiae S288C (α SUC2mal mel gap2 CUP1)) were cultured at 25° C. on YPD medium (yeast extract 1%, polypepton 2%, glucose 2%). One of toxic chemical substances was added to the cell at logarithmic growth phase, and the cell was further cultured for two hours. Cell was cultured without any chemical substance in the same condition, and was used as control. Concentrations of the chemical substances were defined to inhibit the growth of the yeast but not lead to death.
After the completion of cultivation, the culture was centrifuged to collect the cells. To the cells, sodium acetate buffer (50 mM sodium acetate, 10 mM EDTA, 1% SDS) was added, and the mixture was shaken at 65° C. for five minutes, followed by returning to room temperature, and obtaining the supernatant, which procedure was repeated two times. To the supernatant, ½ amount of a solution of phenol/chloroform was added, and the mixture was centrifuged to give a supernatant, which was added with an equal amount of chloroform, and the mixture was centrifuged to give a supernatant. To the supernatant, an equal amount of isopropanol containing 0.3 M sodium acetate was added, and the mixture was allowed to stand at room temperature for 30 minutes, after which the mixture was centrifuged to give a sediment of the whole RNAs. Seventy % ethanol was added to the sediment, and the mixture was again centrifuged to give a sediment, which was then dried and dissolved in water. mRNA was isolated from the whole RNAs as followings. In view of the fact that a poly A chain is attached to the 3′ terminus of mRNA, a polynucleotide having a poly T structure which was immobilized on the surface of latex beads was used to trap the mRNA, and then the mRNA was washed and eluted with spine column (Oligotex-dT30<Super>mRNA Purification Kit, Takara). Reverse transcription of the mRNA was conducted with a reverse transcriptase (Super Script II Reverse Transcriptase; catalogue No. 18064-014, GibcoBRL) using fluorescence-labeled nucleotides to give cDNAs that were introduced with Cy3-dUTP or Cy5-dUTP during the reverse transcription.
The labeled cDNAs were dissolved in TE buffer (10 mM Tris-HCl/1 mM EDTA, pH8.0), and the solution was dropped on the DNA chip containing the whole genes of yeast (DNA Chip Research Inc. Japan) so that the cDNAs were hybridized on the DNA chip at 65° C. for over 12 hours. The fluoresces intensity of the DNA chip was read with a scanner, and the ratio relative to the fluorescence intensity resulting from the absence of chemical substance was estimated as the following, which is shown in Tables 1 to 9: [formula]
In the Tables, “Intensity” indicated in the rightmost column is a value of the level of expressed mRNA of each gene in control cells as divided by the average level of the expressions of the whole genes.

For S=C([S-])NCCNC(=S)[S-].[Zn+2] [(11), zinc N,N′-ethylenebis(dithiocarbamate)], the “The level of expressed mRNA in the presence of chemical substance/absence: YOR253W” value (gene YOR253W) was 0.9, the “The level of expressed mRNA in the presence of chemical substance/absence: YOR267C” value (gene YOR267C) was 0.4 and the “The level of expressed mRNA in the presence of chemical substance/absence: YOR325W” value (gene YOR325W) was 0.6. The “level of expressed mRNA in the presence of chemical substance/in its absence” value (“level … of chemical substance/in its absence” for short) (gene YOR336W) was 1.4, the “level … of chemical substance/in its absence” value (gene YOR344C) was 0.6 and the “level … of chemical substance/in its absence” value (gene YOR347C) was 1.4. The “The level of expressed mRNA in the presence of chemical substance/absence: YPL005W” value (gene YPL005W) was 1.1, the “level … of chemical substance/in its absence” value (gene YPL017C) was 0.4 and the “The level of expressed mRNA in the presence of chemical substance / the level in the absence of chemical substance, yeast gene YPL107W” value (gene YPL107W, DNA chip fluorescence ratio to control without chemical, 2 hours culture with chemical, growth-inhibiting non-lethal concentration) was 1.1. The “The level of expressed mRNA in the presence of chemical substance / the level in the absence of chemical substance, yeast gene YPL138C” value (gene YPL138C, DNA chip fluorescence ratio to control without chemical, 2 hours culture with chemical, growth-inhibiting non-lethal concentration) was 0.5, the “The level of expressed mRNA in the presence of chemical substance/absence: YPL150W” value (gene YPL150W) was 1.1 and the “The level of expressed mRNA in the presence of chemical substance/absence: YPL151C” value (gene YPL151C) was 0.9. For the same molecule, the “The level of expressed mRNA in the presence of chemical substance/absence: YPL152W” value (gene YPL152W) was 1.4, the “The level of expressed mRNA in the presence of chemical substance/absence: YPL168W” value (gene YPL168W) was 0.7 and the “The level of expressed mRNA in the presence of chemical substance/absence: YPL180W” value (gene YPL180W) was 1.0. The “The level of expressed mRNA in the presence of chemical substance/absence: YPL188W” value (gene YPL188W) was 1.0, the “The level of expressed mRNA in the presence of chemical substance/absence: YPL221W” value (gene YPL221W) was 1.0 and the “The level of expressed mRNA in the presence of chemical substance/absence: YPL225W” value (gene YPL225W) was 0.9. The “The level of expressed mRNA in the presence of chemical substance/absence: YPL249C” value (gene YPL249C) was 0.9, the “The level of expressed mRNA in the presence of chemical substance/absence: YPL260W” value (gene YPL260W) was 1.0 and the “level … of chemical substance/in its absence” value (gene YPL265W) was 1.8. For the same molecule, the “level … of chemical substance/in its absence” value (gene YPR006C) was 2.4, the “level … of chemical substance/in its absence” value (gene YPR026W) was 1.6 and the “The level of expressed mRNA in the presence of chemical substance/absence: YPR049C” value (gene YPR049C) was 0.9. The “The level of expressed mRNA in the presence of chemical substance/absence: YPR061C” value (gene YPR061C) was 1.6, the “The level of expressed mRNA in the presence of chemical substance/absence: YPR093C” value (gene YPR093C) was 1.2 and the “The level of expressed mRNA in the presence of chemical substance/absence: YPR146C” value (gene YPR146C) was 1.4. The “The level of expressed mRNA in the presence of chemical substance/absence: YPR148C” value (gene YPR148C) was 0.9, the “The level of expressed mRNA in the presence of chemical substance/absence: YPR150W” value (gene YPR150W) was 0.9 and the “The level of expressed mRNA in the presence of chemical substance/absence: YPR158W” value (gene YPR158W) was 1.5. The “The level of expressed mRNA in the presence of chemical substance/absence: YPR169W” value (gene YPR169W) was 1.0, the “The level of expressed mRNA in the presence of chemical substance/absence: YPR172W” value (gene YPR172W) was 1.9 and the “The level of expressed mRNA in the presence of chemical substance/absence: YPR174C” value (gene YPR174C) was 0.7. The “The level of expressed mRNA in the presence of chemical substance/The level of expressed mRNA in the absence of chemical substance” value (yeast gene YAR010C) was 0.9, the “The level of expressed mRNA in the presence of chemical substance/The level of expressed mRNA in the absence of chemical substance” value (yeast gene YBL005W-A) was 0.8 and the “The level of expressed mRNA in the presence of chemical substance/ (ratio to absence), gene YBL038W” value (yeast gene YBL038W, mitochondria-located protein genes, 2 h culture with chemical) was 0.7. For the same molecule, the “The level of expressed mRNA in the presence of chemical substance/The level of expressed mRNA in the absence of chemical substance” value (yeast gene YBL041W) was 1.6, the “The level of expressed mRNA in the presence of chemical substance/The level of expressed mRNA in the absence of chemical substance” value (yeast gene YBL043W) was 1.5 and the “The level of expressed mRNA in the presence of chemical substance/The level of expressed mRNA in the absence of chemical substance” value (yeast gene YBL078C) was 4.6. For the same molecule, the “The level of expressed mRNA in the presence of chemical substance/ (ratio to absence of chemical substance)” value (yeast gene YBL093C) was 1.3, the “The level of expressed mRNA in the presence of chemical substance/ (in its absence), gene YBR036C” value (yeast gene YBR036C, ratio of DNA chip fluorescence intensity to that without chemical substance) was 1.5 and the “The level of expressed mRNA in the presence of chemical substance/ (ratio to absence of chemical substance)” value (yeast gene YBR044C) was 1.1. For the same molecule, the “The level of expressed mRNA in the presence of chemical substance/ (ratio to absence), gene YBR122C” value (yeast gene YBR122C, mitochondria-located protein genes, 2 h culture with chemical) was 1.2, the “The level of expressed mRNA in the presence of chemical substance/The level of expressed mRNA in the absence of chemical substance” value (yeast gene YBR214W) was 3.2 and the “The level of expressed mRNA in the presence of chemical substance/ (ratio to absence), gene YBR251W” value (yeast gene YBR251W, mitochondria-located protein genes, 2 h culture with chemical) was 1.5. For the same molecule, the “The level of expressed mRNA in the presence of chemical substance/ (in its absence), gene YBR298C” value (yeast gene YBR298C, ratio of DNA chip fluorescence intensity to that without chemical substance) was 1.5, the “The level of expressed mRNA in the presence of chemical substance/The level of expressed mRNA in the absence of chemical substance” value (yeast gene YCL020W) was 1.3 and the “The level of expressed mRNA in the presence of chemical substance/The level of expressed mRNA in the absence of chemical substance” value (yeast gene YCL027W) was 0.9. The “The level of expressed mRNA in the presence of chemical substance/The level of expressed mRNA in the absence of chemical substance” value (yeast gene YCR004C) was 1.9, the “The level of expressed mRNA in the presence of chemical substance/ (ratio to absence), gene YCR046C” value (yeast gene YCR046C, mitochondria-located protein genes, 2 h culture with chemical) was 1.5 and the “The level of expressed mRNA in the presence of chemical substance/The level of expressed mRNA in the absence of chemical substance” value (yeast gene YCR071C) was 1.1. The “The level of expressed mRNA in the presence of chemical substance/ (ratio to absence), gene YCR083W” value (yeast gene YCR083W, mitochondria-located protein genes, 2 h culture with chemical) was 1.8, the “The level of expressed mRNA in the presence of chemical substance/ (ratio to absence of chemical substance)” value (yeast gene YCR083W) was 1.8 and the “The level of expressed mRNA in the presence of chemical substance/The level of expressed mRNA in the absence of chemical substance” value (yeast gene YCR088W) was 1.0. For the same molecule, the “The level of expressed mRNA in the presence of chemical substance/The level of expressed mRNA in the absence of chemical substance” value (yeast gene YDL008W) was 0.9, the “The level of expressed mRNA in the presence of chemical substance/ in its absence, gene YDL067C” value (yeast gene YDL067C, energy system protein genes, 2 h culture with the chemical, ratio to control without chemical) was 1.4 and the “The level of expressed mRNA in the presence of chemical substance/ (ratio to absence), gene YDL067C” value (yeast gene YDL067C, mitochondria-located protein genes, 2 h culture with chemical) was 1.4.
